Measurements as given in publication PMC8812547 (Proceedings of the National Academy of Sciences of the …, 2022).

Assays:
KV2.1 = details: cited from earlier work
adult mice (hindpaw) [1] = type: in vivo, mouse; details: 0.2 nmol A803467 coadministered with 0.6 nmol sPm1a, intraplantar; P < 0.001
[2] = system: TTX-R NaV channels of small DRG neurons; type: cell-based, mouse; details: A803467 1 μM with sPm1a; TTX 0.5 μM; n = 5
[3] = system: small dorsal root ganglion neurons; type: cell-based, mouse; details: A803467 1 µM with sPm1a; n = 6; sPm1a vs. A803467/sPm1a P = 0.0007
adult mice (hindpaw) [4] = assay: mechanical paw withdrawal threshold; type: in vivo, mouse; details: 200 pmol A803467 with 600 pmol sPm1a; n = 5 to 8; P < 0.001

| Compound | KV2.1 gating modification (KV2.1) | spontaneous nocifensive behavior, paw flinches (adult mice (hindpaw) [1]) [flinches per 15 min] | reduction of sPm1a-sensitive TTX-R NaV component [2] [%] | inhibition of sPm1a-induced neuronal firing [3] | paw withdrawal force (mechanical allodynia) (adult mice (hindpaw) [4]) [g] |
| --- | --- | --- | --- | --- | --- |
| ScTx1: gating-modifier venom peptide (DCTRMFGACRRDSDCCPHLGCKPTSKYCAWDGTI; Stromatoxin-1; UniProt P60991 1-34, looked up) | shifting its activation to more depolarized voltages |  |  |  |  |
| COc1cc(NC(=O)c2ccc(-c3ccc(Cl)cc3)o2)cc(OC)c1 [A803467] |  | 93.8 ± 8.8 | 87.3 ± 11.1 | abolished sPm1a-induced neuronal firing | 2.5 ± 0.2 |
